The values below are quoted from earlier work in patent publication US11510865B2, “Magnolia bark extract as a hydrophobic ligand for preferential removal of gram negative bacteria from the oral cavity” (WM. WRIGLEY JR. COMPANY, priority 2015, dated 2022).

SMILES strings stand for the structures.

The subject of the data set is S. mutans (ATCC 10449). The following applies: increased from 0.01; Jongsma et al. 2015.

Turning to `Oc1cc(Cl)ccc1Oc1ccc(Cl)cc1Cl` [triclosan], the removal rate is listed as 0.05.
